Laboratory results taken from patent publication US8044057B2, “Methods for suppressing an immune response or treating a proliferative disorder” (The United States of America as represented by the …, priority 2003, dated 2011).

Key:
A549 cells = assay: Western blot of cell cycle inhibitors, cyclins and phospho-Rb in A549 cells; assay type: cell-based, human
Method: FIGS. 3A-3B are bar graphs and digital images showing the effect of LY303511 on the levels of cell cycle inhibitors and cyclins. A549 cells (˜1×10^6 cells per 100-mm dish) were grown for 48 h before addition of 0.1% DMSO, 100 μM LY303511, or rapamycin, 200 ng/ml, for 0, 12, or 24 hours. At the indicated times, cells were homogenized and stored at −80° C. For Western blot analyses, samples (70 μg) of lysate proteins separated by SDS-PAGE were transferred to nitrocellulose membranes and reacted with the following antibodies: A. Phospho-S6K T389 (pS6K), p27 Kip1, p21 Cip1, phospho-Rb S807/S811, or B. Cyclin A, Cyclin B, Cyclin D, and Cyclin E. All blots are from one experiment. Data below (relative density) are means of densitometric values from duplicate dishes treated with inhibitors for 24 hours relative to DMSO control=1.0 in three experiments. *p<0.05 vs. DMSO control by Student's t-test.
In another experiment, A549 cells were grown to sub-confluence in serum-containing media, and incubated with a vehicle, 100 mcM LY303511, or rapamycin, 200 ng/ml for 0, 12, or 24 hours. Cells were lysed, and proteins separated by SDS-PAGE before transfer to nitrocellulose membranes. Membranes were incubated with antibodies against p27Kip1, p21 Cip1 orphospho-P70 S6 kinase T389.

PASM cells = assay: Propidium iodide flow cytometry cell cycle analysis in PASM cells; assay type: cell-based, human; conditions: 24 hours
Method: FIGS. 5A-5B are bar graphs showing that LY303511 inhibits the cell cycle by causing combined G1 and G2/M arrest and that LY303511 inhibits CK2 activity. For the data shown in FIG. 5A, PASM cells were cultured in medium with FBS for 48 hours before the addition of 0-100 μM LY303511 without or with raparnycin, 400 ng/ml, for 24 hours. Cells were then harvested and incubated with propidium iodide for 2 hours before counting using a Becton-Dickson FACSCalibur. Data are the means (±SEM) of percentages of cells in G1, S, or G2/M phase of the cell cycle in three experiments with duplicate assays. *p<0.05 vs. DMSO control, or †p<0.05 vs. 10 μM LY303511, by Student's t—test. FIG. 5B is a bar graph showing that LY303511 or LY294002 inhibits CK2 in vitro. […] Data are the means of values for samples with inhibitors expressed as percentage of that for control, which was (mean±SEM) 0.2±0.03 pmol phosphate/100 ng protein/10 min. […]
In order to investigate the effect of LY303511 on the cell cycle, A549 cells or pulmonary artery smooth muscle cells were grown to sub-confluence in serum-containing media, and incubated with vehicle, 10, or 100 mcM LY303511, without or with Rapamycin (200 ng/ml), for 24 hours. […] The proportion of cells in G1, S, or G2/M phase of the cell cycle for each experimental condition was determined. […]

NOD mouse model = assay: NOD and Hashimoto's autoimmune animal models; assay type: in vivo; conditions: compared to untreated animals
From the text: There are several animal based autoimmune models that can be used to test the use of the compounds disclosed herein for the treatment of an autoimmune disorder. Table 2 lists several exemplary immune-mediated disorders that can be treated using a peptide/MHC complex. For example, the non-obese diabetic (NOD) mouse model is an animal model system wherein animals develop diabetes with increasing age. To test the efficacy of a particular compound, groups of animals at the prediabetic stage (4 weeks or younger) are treated with, for example, LY303511, or LY303511 in combination with an additional immunosuppressive agent. The number of animals developing diabetes, and the rate that the anirnals develop diabetes, is then analyzed. Similarly, in the Hashimoto's mouse model system, to test the efficacy of a vaccine, groups of animals prior to the development of symptoms are treated with a treated with, for example, LY303511, or LY303511 in combination with an additional immunosuppressive agent. The number of animals developing the disease, and the rate that the animals develop the disease, are then analyzed.

[1] = 100 mcM LY303511 or rapamycin 200 ng/ml, 12 and 24 hours

O=c1cc(N2CCNCC2)oc2c(-c3ccccc3)cccc12 [LY303511, 2-(4-piperazinyl)-8-phenyl-4H-1-benzopyran-4-one]
phosphorylation of Rb (S807/S811) (A549 cells; 100 mcM LY303511): reduced the phosphorylation of Rb
levels of cyclin A and B (A549 cells; 100 mcM LY303511 or rapamycin 200 ng/ml): decreased levels of cyclin A and B
p21 Cip1 level (A549 cells; [1]): significant increase in p21 Cip1
p27Kip1 level (A549 cells; [1]): accumulation of p27Kip1
G1 phase cells (G1 arrest) (PASM cells): negligible
proportion of cells in S phase (PASM cells): reduced the proportion of cells in S phase
progression or development of autoimmune disease (NOD mouse model): delays the progression of the disease, or provides protection from developing the disease
